# Laboratory results taken from US10703756B2, “Pyrrolo[2,3-D]pyrimidinyl, pyrrolo[2,3-B]pyrazinyl, pyrrolo[2,3-B]pyridinyl acrylamides and epoxides thereof” (Pfizer Inc., priority 2015, dated 2020).
# Experiments:
# JAK3 enzyme [1] = target: T1, JAK3 enzyme (Homo sapiens, UniProt P52333); test: JAK Caliper Enzyme Assay at 4 μM ATP; format: biochemical
# T1 sequence (P52333 1-1124): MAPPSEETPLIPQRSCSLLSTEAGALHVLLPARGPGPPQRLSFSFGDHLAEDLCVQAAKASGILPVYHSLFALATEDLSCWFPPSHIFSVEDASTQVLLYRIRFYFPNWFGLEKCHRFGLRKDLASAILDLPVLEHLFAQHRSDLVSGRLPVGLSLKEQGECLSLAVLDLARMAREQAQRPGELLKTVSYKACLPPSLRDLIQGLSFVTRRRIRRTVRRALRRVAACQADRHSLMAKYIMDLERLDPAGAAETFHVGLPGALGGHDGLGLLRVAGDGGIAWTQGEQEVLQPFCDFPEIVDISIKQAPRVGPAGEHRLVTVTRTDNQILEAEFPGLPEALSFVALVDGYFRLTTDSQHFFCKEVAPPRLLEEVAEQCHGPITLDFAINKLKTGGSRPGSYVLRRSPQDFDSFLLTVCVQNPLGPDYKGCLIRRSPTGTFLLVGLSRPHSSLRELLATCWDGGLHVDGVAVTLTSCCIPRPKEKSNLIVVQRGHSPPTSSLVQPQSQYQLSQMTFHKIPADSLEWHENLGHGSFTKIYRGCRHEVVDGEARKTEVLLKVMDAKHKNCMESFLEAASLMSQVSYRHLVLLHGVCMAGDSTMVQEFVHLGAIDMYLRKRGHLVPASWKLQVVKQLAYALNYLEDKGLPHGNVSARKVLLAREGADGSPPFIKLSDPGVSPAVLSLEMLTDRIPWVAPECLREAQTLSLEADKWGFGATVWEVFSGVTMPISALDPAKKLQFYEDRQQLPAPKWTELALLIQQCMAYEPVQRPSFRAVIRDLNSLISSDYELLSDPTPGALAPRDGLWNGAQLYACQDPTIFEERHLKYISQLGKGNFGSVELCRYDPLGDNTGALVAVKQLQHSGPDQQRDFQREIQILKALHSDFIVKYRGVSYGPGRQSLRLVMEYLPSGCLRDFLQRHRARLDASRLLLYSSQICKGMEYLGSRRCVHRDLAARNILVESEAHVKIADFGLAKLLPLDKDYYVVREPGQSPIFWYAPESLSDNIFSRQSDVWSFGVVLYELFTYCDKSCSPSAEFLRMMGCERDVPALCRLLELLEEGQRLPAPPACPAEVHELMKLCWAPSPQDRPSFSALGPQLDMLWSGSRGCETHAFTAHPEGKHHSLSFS
# Experimental: (§1) Test article was solubilized in dimethyl sulfoxide (DMSO) to a stock concentration of 30 mM. An 11-point half log dilution series was created in DMSO with a top concentration of 600 μM. […] Test article and assay controls were added to a 384-well plate. […] Enzyme concentrations and incubation times were optimized for each new enzyme preps and were modified slightly over time to ensure 20%-30% phosphorylation. […] The assay plates were placed on a Caliper Life Science Lab Chip 3000 (LC3000) instrument, and each well was sampled using appropriate separation conditions to measure the unphosphorylated and phosphorylated peptide.
# JAK3 enzyme [2] = target: T1, JAK3 enzyme; test: JAK Caliper Enzyme Assay at 1 mM ATP; format: biochemical
# Experimental: as §1
SMILES,IC50 (JAK3 enzyme [1]) [nM],IC50 (JAK3 enzyme [2]) [nM]
"C=CC(=O)N1CCC(Oc2cnc3[nH]cc(C(=O)NCC4CCC4)c3c2)CC1 [Example 345, 5-[(1-acryloylpiperidin-4-yl)oxy]-N-(cyclobutylmethyl)-1H-pyrrolo[2,3-b]pyridine-3-carboxamide]",43.7,4030
"C=CC(=O)N1CCN(c2cnc3[nH]cc(C(=O)N[C@H](CO)C(CC)CC)c3n2)CC1(C)C [Example 137, 2-(4-acryloyl-3,3-dimethylpiperazin-1-yl)-N-[(2S)-3-ethyl-1-hydroxypentan-2-yl]-5H-pyrrolo[2,3-b]pyrazine-7-carboxamide]",28.1,3020
"C=CC(=O)N1CCN(c2cnc3[nH]cc(C(=O)N[C@@H]4COC[C@@H]4CC(C)C)c3n2)CC1(C)C [Example 142, 2-(4-acryloyl-3,3-dimethylpiperazin-1-yl)-N-[(3S,4R)-4-(2-methylpropyl)tetrahydrofuran-3-yl]-5H-pyrrolo[2,3-b]pyrazine-7-carboxamide]",60.4,4430
"C=CC(=O)N1CCC(N(C)c2cnc3[nH]cc(C(=O)N4CCC4)c3n2)CC1 [Example 62, 1-(4-{[7-(azetidin-1-ylcarbonyl)-5H-pyrrolo[2,3-b]pyrazin-2-yl](methyl)amino}piperidin-1-yl)prop-2-en-1-one]",13.5,2700
"C=CC(=O)N1CC[C@H](OC)[C@H](Nc2cnc3[nH]cc(C(=O)N[C@H](C)COC)c3n2)C1 (single isomer, unassigned) [Example 6]",10.1,1320
"C=CC(=O)N1C[C@H](Nc2ncnc3[nH]ccc23)CC[C@H]1[C@@H](C)O (single isomer, unassigned) [Example 110]",867,> 10000
"C=CC(=O)N1C[C@H](C2CC2)[C@H](Nc2cnc3[nH]cc(C(=O)NCC)c3n2)C1 [Example 238, 2-{[(3S,4S)-1-acryloyl-4-cyclopropylpyrrolidin-3-yl]amino}-N-ethyl-5H-pyrrolo[2,3-b]pyrazine-7-carboxamide]",9.48,1360
"C=CC(=O)N1CCN(c2cnc3[nH]cc(C(=O)N[C@@H]4COC[C@@H]4c4ccc(F)cc4)c3n2)CC1(C)C (stereo in doubt) [Example 143, 2-(4-acryloyl-3,3-dimethylpiperazin-1-yl)-N-[4-(4-fluorophenyl)tetrahydrofuran-3-yl]-5H-pyrrolo[2,3-b]pyrazine-7-carboxamide]",22.6,1920
"C=CC(=O)N1C[C@@H](CC)[C@@H](Nc2cnc3[nH]cc(C(=O)NCC)c3n2)C1 [Example 263, 2-{[(3R,4R)-1-acryloyl-4-ethylpyrrolidin-3-yl]amino}-N-ethyl-5H-pyrrolo[2,3-b]pyrazine-7-carboxamide]",52.4,6460
"C=CC(=O)N1CCN(c2cnc3[nH]cc(C(=O)N[C@@H](C)COc4ccccc4)c3n2)CC1(C)C [Example 147, 2-(4-acryloyl-3,3-dimethylpiperazin-1-yl)-N-[(2S)-1-phenoxypropan-2-yl] 5H-pyrrolo[2,3-b]pyrazine-7-carboxamide]",41.7,3710
"C=CC(=O)N1CCC(Oc2cnc3[nH]cc(C(=O)NCCC(F)(F)F)c3c2)CC1 [Example 338, 5-[(1-acryloylpiperidin-4-yl)oxy]-N-(3,3,3-trifluoropropyl)-1H-pyrrolo[2,3-b]pyridine-3-carboxamide]",31.4,2780
"C=CC(=O)N1CCC(Oc2cnc3[nH]cc(C(=O)N[C@H]4CC[C@@H](F)C4)c3c2)CC1 [Example 344, 5-[(1-acryloylpiperidin-4-yl)oxy]-N-[(1S,3R)-3-fluorocyclopentyl]-1H-pyrrolo[2,3-b]pyridine-3-carboxamide]",26.7,2540
"C=CC(=O)N1CCN(c2cnc3[nH]cc(C(=O)NC(CO)c4ccc(F)cc4)c3n2)CC1(C)C (racemic) [Example 165, Racemic-2-(4-acryloyl-3,3-dimethylpiperazin-1-yl)-N-[1-(4-fluorophenyl)-2-hydroxyethyl]-5H-pyrrolo[2,3-b]pyrazine-7-carboxamide]",10.7,957
"C=CC(=O)N1CCC(Oc2cnc3[nH]cc(C(=O)NCc4cccc(F)c4)c3c2)CC1 [Example 340, 5-[(1-acryloylpiperidin-4-yl)oxy]-N-(3-fluorobenzyl)-1H-pyrrolo[2,3-b]pyridine-3-carboxamide]",30,3470

# The next compounds have a lower IC50 (JAK3 enzyme [1]) than those just listed; values first:
IC50 (JAK3 enzyme [1]) [nM],IC50 (JAK3 enzyme [2]) [nM],SMILES
5.82,632,"C=CC(=O)N1CCN(c2cnc3[nH]cc(C(=O)NC(CO)c4cccc(F)c4)c3n2)CC1(C)C (racemic) [Example 136, Racemic-2-(4-acryloyl-3,3-dimethylpiperazin-1-yl)-N-[1-(3-fluorophenyl)-2-hydroxyethyl]-5H-pyrrolo[2,3-b]pyrazine-7-carboxamide]"
4.92,721,"C=CC(=O)N1CCN(c2cnc3[nH]cc(C(=O)NC(CO)CCCC)c3n2)CC1(C)C (racemic) [Example 155, Racemic-2-(4-acryloyl-3,3-dimethylpiperazin-1-yl)-N-(1-hydroxyhexan-2-yl)-5H-pyrrolo[2,3-b]pyrazine-7-carboxamide]"
4.68,590,"C=CC(=O)N1CCN(c2cnc3[nH]cc(C(=O)NC(CO)c4ccccc4F)c3n2)CC1(C)C (racemic) [Example 154, Racemic-2-(4-acryloyl-3,3-dimethylpiperazin-1-yl)-N-[1-(2-fluorophenyl)-2-hydroxyethyl]-5H-pyrrolo[2,3-b]pyrazine-7-carboxamide]"
4.4,713,"C=CC(=O)N1CCC(Oc2cnc3[nH]cc(C(=O)NCC(C)(C)C)c3n2)CC1 [Example 221, 2-[(1-acryloylpiperidin-4-yl)oxy]-N-(2,2-dimethylpropyl)-5H-pyrrolo[2,3-b]pyrazine-7-carboxamide]"
3.82,651,"C=CC(=O)N1CCN(c2cnc3[nH]cc(C(=O)NCCCC(F)(F)F)c3n2)CC1(C)C [Example 272, 2-(4-acryloyl-3,3-dimethylpiperazin-1-yl)-N-(4,4,4-trifluorobutyl)-5H-pyrrolo[2,3-b]pyrazine-7-carboxamide]"
3.54,526,"C=CC(=O)N1CCC(Oc2cnc3[nH]cc(C(=O)NCC4(O)CCCC[C@@H]4F)c3n2)CC1 (mixture of isomers) [Example 224, Racemic-2-[(1-acryloylpiperidin-4-yl)oxy]-N-{[(2S)-2-fluoro-1-hydroxycyclohexyl]methyl}-5H-pyrrolo[2,3-b]pyrazine-7-carboxamide]"
3.34,829,"C=CC(=O)N1C[C@H](C2CC2)[C@H](Nc2cnc3[nH]cc(C(=O)NCCOC)c3n2)C1 [Example 247, 2-{[(3S,4S)-1-acryloyl-4-cyclopropylpyrrolidin-3-yl]amino}-N-(2-methoxyethyl)-5H-pyrrolo[2,3-b]pyrazine-7-carboxamide]"
2.41,479,"C=CC(=O)N1C[C@H](C)[C@H](Nc2cnc3[nH]cc(C(=O)NCCOC)c3n2)C1 [Example 264, 2-{[(3S,4S)-1-acryloyl-4-methylpyrrolidin-3-yl]amino}-N-(2-methoxyethyl)-5H-pyrrolo[2,3-b]pyrazine-7-carboxamide]"
2.12,430,C=CC(=O)N1CCC(Oc2cnc3[nH]cc(C(=O)NCC4(O)CC[C@@H](C)C4)c3n2)CC1 (mixture of isomers) [Example 226]
0.993,22,"C=CC(=O)N1CCC(Nc2cnc3[nH]cc(C(=O)NCc4nc5ccc(F)cc5o4)c3n2)CC1 [Example 194, 2-[(1-acryloylpiperidin-4-yl)amino]-N-[(6-fluoro-1,3-benzoxazol-2-yl)methyl]-5H-pyrrolo[2,3-b]pyrazine-7-carboxamide]"
0.182,33,"C#CCOCCc1c[nH]c2ncnc(N[C@@H]3CC[C@H](C)N(C(=O)C=C)C3)c12 [Example 131, 1-[(2S,5R)-2-Methyl-5-({5-[2-(prop-2-yn-1-yloxy)ethyl]-7H-pyrrolo[2,3-d]pyrimidin-4-yl}amino)piperidin-1-yl]prop-2-en-1-one]"
